From PubChem BioAssay (NCI)
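Briefly, cells in 96-well plates were exposed to five compound concentrations for 48 h, and endpoints were estimated by linear interpolation. GI50 is the concentration that inhibits growth by half. TGI: total growth inhibition.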

Experiments:
Experiment in all cases: DTP human tumour cell line panel, 48 h
HCC-2998 colon = test system: HCC-2998 colon
HL-60(TB) leukemia = test system: HL-60(TB) leukemia
RXF 393 renal = test system: RXF 393 renal
KM12 colon = test system: KM12 colon
OVCAR-5 ovarian = test system: OVCAR-5 ovarian
LOX IMVI melanoma = test system: LOX IMVI melanoma
OVCAR-3 ovarian = test system: OVCAR-3 ovarian
NCI-H460 lung = test system: NCI-H460 lung
HT29 colon = test system: HT29 colon
SNB-75 CNS = test system: SNB-75 CNS
SK-OV-3 ovarian = test system: SK-OV-3 ovarian
PC-3 prostate = test system: PC-3 prostate
U251 CNS = test system: U251 CNS
MOLT-4 leukemia = test system: MOLT-4 leukemia
OVCAR-8 ovarian = test system: OVCAR-8 ovarian
COLO 205 colon = test system: COLO 205 colon
TK-10 renal = test system: TK-10 renal
SR leukemia = test system: SR leukemia
MDA-MB-435 = test system: MDA-MB-435
NCI/ADR-RES ovarian = test system: NCI/ADR-RES ovarian
ACHN renal = test system: ACHN renal
MDA-MB-231 breast = test system: MDA-MB-231 breast
SF-295 CNS = test system: SF-295 CNS
CCRF-CEM leukemia = test system: CCRF-CEM leukemia
NCI-H522 lung = test system: NCI-H522 lung
786-0 renal = test system: 786-0 renal
HOP-92 NSCLC = test system: HOP-92 NSCLC
M14 melanoma = test system: M14 melanoma
SW-620 colon = test system: SW-620 colon
UACC-257 melanoma = test system: UACC-257 melanoma
IGROV1 ovarian = test system: IGROV1 ovarian
OVCAR-4 ovarian = test system: OVCAR-4 ovarian
RPMI-8226 leukemia = test system: RPMI-8226 leukemia
T-47D breast = test system: T-47D breast
HCT-116 colon = test system: HCT-116 colon
A549 NSCLC = test system: A549 NSCLC
MCF7 breast = test system: MCF7 breast
DU-145 prostate = test system: DU-145 prostate
BT-549 breast = test system: BT-549 breast
UO-31 renal = test system: UO-31 renal
UACC-62 melanoma = test system: UACC-62 melanoma
MALME-3M melanoma = test system: MALME-3M melanoma
SN12C renal = test system: SN12C renal
HOP-62 NSCLC = test system: HOP-62 NSCLC
SNB-19 CNS = test system: SNB-19 CNS
NCI-H226 lung = test system: NCI-H226 lung
K-562 leukemia = test system: K-562 leukemia
A498 renal = test system: A498 renal
SK-MEL-5 melanoma = test system: SK-MEL-5 melanoma
EKVX NSCLC = test system: EKVX NSCLC
NCI-H23 lung = test system: NCI-H23 lung
SK-MEL-2 melanoma = test system: SK-MEL-2 melanoma
SF-539 CNS = test system: SF-539 CNS
HS 578T breast = test system: HS 578T breast
CAKI-1 renal = test system: CAKI-1 renal
SK-MEL-28 melanoma = test system: SK-MEL-28 melanoma
HCT-15 colon = test system: HCT-15 colon
SF-268 CNS = test system: SF-268 CNS

CN1CCN(c2ccc(NC(=O)Nc3ccc4c(ccn4-c4cccc(C(N)=O)n4)c3)cc2C(F)(F)F)CC1
GI50 (HCC-2998 colon): 6.28 µM
TGI (HCC-2998 colon): 14 µM
GI50 (HL-60(TB) leukemia): 5.59 µM
TGI (HL-60(TB) leukemia): 13.5 µM
GI50 (RXF 393 renal): 1060 nM
TGI (RXF 393 renal): 2500 nM
GI50 (KM12 colon): 2250 nM
TGI (KM12 colon): 9.23 µM
GI50 (OVCAR-5 ovarian): 7.54 µM
TGI (OVCAR-5 ovarian): 17 µM
GI50 (LOX IMVI melanoma): 969 nM
TGI (LOX IMVI melanoma): 2030 nM
GI50 (OVCAR-3 ovarian): 8.35 µM
TGI (OVCAR-3 ovarian): 16.4 µM
GI50 (NCI-H460 lung): 1740 nM
TGI (NCI-H460 lung): 5.88 µM
GI50 (HT29 colon): 1290 nM
TGI (HT29 colon): 5.5 µM
GI50 (SNB-75 CNS): 5.06 µM
TGI (SNB-75 CNS): 11.9 µM
GI50 (SK-OV-3 ovarian): 7.14 µM
TGI (SK-OV-3 ovarian): 13.8 µM
GI50 (PC-3 prostate): 3.34 µM
TGI (PC-3 prostate): 11 µM
GI50 (U251 CNS): 1330 nM
TGI (U251 CNS): 6.64 µM
GI50 (MOLT-4 leukemia): 1020 nM
TGI (MOLT-4 leukemia): 2240 nM
GI50 (OVCAR-8 ovarian): 10.1 µM
TGI (OVCAR-8 ovarian): 25.1 µM
GI50 (COLO 205 colon): 5.91 µM
TGI (COLO 205 colon): 15.4 µM
GI50 (TK-10 renal): 8.51 µM
TGI (TK-10 renal): 16.3 µM
GI50 (SR leukemia): 929 nM
TGI (SR leukemia): 2480 nM
GI50 (MDA-MB-435): 1130 nM
TGI (MDA-MB-435): 2820 nM
GI50 (NCI/ADR-RES ovarian): 9.47 µM
TGI (NCI/ADR-RES ovarian): 24.2 µM
GI50 (ACHN renal): 6.95 µM
TGI (ACHN renal): 14.1 µM
GI50 (MDA-MB-231 breast): 6.53 µM
TGI (MDA-MB-231 breast): 19.1 µM
GI50 (SF-295 CNS): 969 nM
TGI (SF-295 CNS): 2150 nM
GI50 (CCRF-CEM leukemia): 1400 nM
TGI (CCRF-CEM leukemia): 3.18 µM
GI50 (NCI-H522 lung): 10.1 µM
TGI (NCI-H522 lung): 20.8 µM
GI50 (786-0 renal): 834 nM
TGI (786-0 renal): 2000 nM
GI50 (HOP-92 NSCLC): 6.91 µM
TGI (HOP-92 NSCLC): 15.8 µM
GI50 (M14 melanoma): 991 nM
TGI (M14 melanoma): 2210 nM
GI50 (SW-620 colon): 1270 nM
TGI (SW-620 colon): 2910 nM
GI50 (UACC-257 melanoma): 1110 nM
TGI (UACC-257 melanoma): 2660 nM
GI50 (IGROV1 ovarian): 9.04 µM
TGI (IGROV1 ovarian): 20.4 µM
GI50 (OVCAR-4 ovarian): 8.09 µM
TGI (OVCAR-4 ovarian): 21.9 µM
GI50 (RPMI-8226 leukemia): 1170 nM
TGI (RPMI-8226 leukemia): 2650 nM
GI50 (T-47D breast): 9.33 µM
TGI (T-47D breast): 22.8 µM
GI50 (HCT-116 colon): 858 nM
TGI (HCT-116 colon): 1840 nM
GI50 (A549 NSCLC): 5.2 µM
TGI (A549 NSCLC): 13.3 µM
GI50 (MCF7 breast): 878 nM
TGI (MCF7 breast): 2020 nM
GI50 (DU-145 prostate): 5.97 µM
TGI (DU-145 prostate): 14.5 µM
GI50 (BT-549 breast): 5.21 µM
TGI (BT-549 breast): 12.5 µM
GI50 (UO-31 renal): 7.38 µM
TGI (UO-31 renal): 15.6 µM
GI50 (UACC-62 melanoma): 5.65 µM
TGI (UACC-62 melanoma): 13.8 µM
GI50 (MALME-3M melanoma): 1370 nM
TGI (MALME-3M melanoma): 3.79 µM
GI50 (SN12C renal): 8.1 µM
TGI (SN12C renal): 18.5 µM
GI50 (HOP-62 NSCLC): 5.89 µM
TGI (HOP-62 NSCLC): 12.9 µM
GI50 (SNB-19 CNS): 5.99 µM
TGI (SNB-19 CNS): 16.4 µM
GI50 (NCI-H226 lung): 8.61 µM
TGI (NCI-H226 lung): 20.4 µM
GI50 (K-562 leukemia): 938 nM
TGI (K-562 leukemia): 2170 nM
GI50 (A498 renal): 7.74 µM
TGI (A498 renal): 14.8 µM
GI50 (SK-MEL-5 melanoma): 964 nM
TGI (SK-MEL-5 melanoma): 2080 nM
GI50 (EKVX NSCLC): 6.9 µM
TGI (EKVX NSCLC): 16.3 µM
GI50 (NCI-H23 lung): 7.61 µM
TGI (NCI-H23 lung): 19.3 µM
GI50 (SK-MEL-2 melanoma): 5.17 µM
TGI (SK-MEL-2 melanoma): 12.4 µM
GI50 (SF-539 CNS): 1920 nM
TGI (SF-539 CNS): 8.07 µM
GI50 (HS 578T breast): 2680 nM
TGI (HS 578T breast): 12.5 µM
GI50 (CAKI-1 renal): 6.47 µM
TGI (CAKI-1 renal): 13.5 µM
GI50 (SK-MEL-28 melanoma): 939 nM
TGI (SK-MEL-28 melanoma): 1910 nM
GI50 (HCT-15 colon): 1660 nM
TGI (HCT-15 colon): 7.33 µM
GI50 (SF-268 CNS): 6.71 µM
TGI (SF-268 CNS): 18 µM
